From patent US20230276792A1, “SELECTIVE HERBICIDES BASED ON SUBSTITUTED ISOXAZOLIN CARBOXAMIDES AND CLOQUINTOCET-MEXYL” (Bayer Aktiengesellschaft, priority 2020, published 2023)

Tests used:
Format in all cases: in vivo
[1] = system: spring wheat, TRZAS Triso; assay: Safener seed treatment, pre-emergence herbicide application, crop damage; settings: cloquintocet-mexyl 0.25 g a.i./kg seed
Method: (§1) For the safener seed treatment, sufficient seeds of the respective crops (spring wheat, TRZAS; spring barley, HORVS; maize, ZEAMA) were weighed into screw top glass bottles approximately twice the volume of the seeds.
(§2) The specified safeners, formulated as wettable powder (WP) were weighed out so that the specified rates (g a.i./kg seed) would be obtained, dissolved in water (1 ml water per 10 g of seeds), and added to the seeds to produce a slurry.
(§3) The bottles were capped and then placed in an overhead shaker (set at medium speed for ca. 60 minutes) so that the seeds were evenly coated with the slurry. The bottles were uncapped and the seeds were either placed on paper and dried for an interval of 3-4 hours prior to sowing, or directly sown. Seeds were placed in sandy loam soil in pots of a diameter of 7-8 cm, and covered with soil.
Pre-emergence application of the specified herbicides was done subsequently, on two sets of plants: • a) seed treatment with safener, as described above • b) no safener treatment
The herbicides were formulated as WP and was sprayed onto the soil surface as an aqueous suspension at an equivalent water application rate of 300 l/ha.
(§4) After application, the test plants were kept in the greenhouse under good growth conditions. At intervals up to 4 weeks after application (=28 days after treatment; DAT), % crop damage observed on the treated plants was scored visually in comparison to control plants that had not received any safener or herbicide treatment.
Values in the table below are mean values of at least 2 replicates.
(§5) Reduction [Difference]=herbicide damage without safener−herbicide damage with safener
(§6) Reduction [%]=(Reduction [Difference]*100)/herbicide damage without safener
a) Plant Species, Variety: TRZAS Triso, Safener (SAF): Cloquintocet-Mexyl

[2] = system: spring wheat, TRZAS Triso; assay: Safener seed treatment, post-emergence herbicide application, crop damage; settings: 21 DAT; for HER effect + SAF [%]: cloquintocet-mexyl 0, 5 g a.i./kg seed; for HER effect [%]: without safener
From the text: For safener seed treatment trials, sufficient seed amounts of the respective crops (spring wheat (TRZAS); spring barley (HORVS)) were weighed into screw cap glass bottles with a minimum volume trice of the seeds.
As a first step, specified safeners formulated as wettable powder (WP) or wettable granules (WG) were weighed out for the required dosages (g a.i./kg seed), corresponding to the seed amounts. The safener amounts were mixed with a coloured slurry blind formulation type, pre-diluted with milk at 3.5% fat rate (25 mgs slurry formulation plus 2 ml milk per 10 grams of seed). A tube roller was used for coating. The solutions were gradually pipetted each on the rotating seeds followed by coating for min. 3 hours until all liquid had been soaked up by the seeds. Thereafter, the coated seeds were put flat on open trays for drying over night at room temperature.
Treated seeds were then placed into pots (7 cm diameter) on the surface of sandy loam, pressed down, flat covered with additional soil and finally covered with sandy soil, also pressed down, watered, and kept under good growth conditions in a greenhouse, until the plants had reached 2-leaf-stage (BBCH 12).
At that stage, post-emergence application of the specified herbicides was done on: • a) pot sets containing plants with safener-coated seeds as described above, • b) as a reference, pot sets of plants without seed treatment.
The herbicides were formulated as wettable powder (WP). Equivalent to the spray area, compound amounts were weighed out and diluted related to the water application rate (300 l/ha) to an aqueous suspension plus additive (1 l/ha MERO). Dosage related equivalents were conventionally sprayed on trays with the potted plants.
After application, the test plants were kept under good growth conditions in a greenhouse. Assessment timings were 10 and 21 days after treatment (DAT) with the herbicide, by visual scoring of the crop damage in % (comparison of untreated with treated plants, either sprayed only with herbicide or with herbicide on plants with treated seeds).
as §5, §6
b) Plant Species, Variety: TRZAS Triso, Safener (SAF): Cloquintocet-Mexyl

[3] = system: spring barley, HORVS Montoya; assay: Safener seed treatment, pre-emergence herbicide application, crop damage; settings: 21 (Final) DAT; HER dose 15 g a.i./ha; cloquintocet-mexyl 0.25 g a.i./kg seed
Method: as §1, §2, §3
Pre-emergence application of the specified herbicides was done subsequently, on two sets of plants: • a) seed treatment with safener, as described above • b) no safener treatment […]
as §4, with “treatment. […]” for “treatment.”

[4] = 11 (Interim) DAT, HER dose 15 g a.i./ha
[5] = 21 (Final) DAT, HER dose 15 g a.i./ha

C=CC1(C(=O)NC2COC(C(=O)OC)C2)CC(c2cc(F)cc(F)c2)=NO1 (mixture of isomers) [Example 1.68] was tested, and the “Reduction [Difference]” value ([1]; 11 (Interim) DAT, HER dose 5 g a.i./ha) was 45, the “Reduction [%]” value [1, 4] was 88% and the “Reduction [Difference]” value [1, 4] was 70. The “Reduction [Difference]” value ([1]; 21 (Final) DAT, HER dose 5 g a.i./ha) was 45, the “Reduction [%]” value [1, 5] was 94% and the “Reduction [Difference]” value [1, 5] was 80. The “HER effect + SAF [%]” value ([2]; HER dose 1 g a.i./ha) was 20%, the “HER effect [%]” value ([2]; HER dose 1 g a.i./ha) was 80% and the “HER effect + SAF [%]” value ([2]; HER dose 4 g a.i./ha) was 30%. For the same compound, the “HER effect [%]” value ([2]; HER dose 4 g a.i./ha) was 85% and the “Reduction [Difference]” value [3] was 80.
